Data as given in patent US5512553A, “7-(substituted)-8-(substituted)-9-(substituted amino)-6-demethyl-6-deoxytetracyclines” (American Cyanamid Company, priority 1995, dated 1996).
Structures can show the parent of a compound that is named as a salt. Where two headings read alike, the source gives them in different places.

Tests used:
[1] = system: S. aureus UBMS 90-1 (tetM); test: microbe, parasite or virus in culture; assay type: cell-based; settings: Staphylococcus aureus, 18 h
Method: (§1) Method for In Vitro Antibacterial Evaluation (Table I)
(§2) The minimum inhibitory concentration (MIC), the lowest concentration of the antibiotic which inhibits growth of the test organism, is determined by the agar dilution method using Muller-Hinton II agar (Baltimore Biological Laboratories). An inoculum density of 1-5×10^5 CFU/ml and an antibiotic concentration (32-≤0.015 μg/ml) is used. The plates are incubated for 18 hours at 35° C. in a forced air incubator. The test organisms comprise strains sensitive to tetracycline and genetically defined strains that are resistant to tetracycline, due to inability to bind bacterial ribosomes (tetM).

[2] = system: S. aureus UBMS 88-7 (tetK); test: microbe, parasite or virus in culture; assay type: cell-based; settings: Staphylococcus aureus, 18 h
Method: as §1, §2

[3] = system: E. coli UBMS 88-1 (tetB); test: microbe, parasite or virus in culture; assay type: cell-based; settings: Escherichia coli, 18 h
Method: as §1, §2

[4] = system: E. coli UBMS 89-1 (tetM); test: microbe, parasite or virus in culture; assay type: cell-based; settings: Escherichia coli, 18 h
Method: as §1, §2

[5] = system: S. aureus UBMS 90-2 (tetM); test: microbe, parasite or virus in culture; assay type: cell-based; settings: Staphylococcus aureus, 18 h
Method: as §1, §2

[6] = system: S. aureus UBMS 88-5 (tetM); test: microbe, parasite or virus in culture; assay type: cell-based; settings: Staphylococcus aureus, 18 h
Method: as §1, §2

[7] = system: S. aureus IVES 1983 (MP) (meth. resistant); test: In vitro antibacterial evaluation, MIC by agar dilution; assay type: cell-based; settings: Staphylococcus aureus, 18 h
Method: as §1, §2

[8] = system: S. aureus SMITH (MP) (sensitive); test: as above; assay type: cell-based; settings: Staphylococcus aureus
Method: as §1, §2

[9] = system: E. coli UBMS 89-2 (sensitive); test: as above; assay type: cell-based; settings: Escherichia coli, Muller-Hinton II agar, 18 hours at 35° C.
Method: as §1, §2

[10] = system: S. aureus UBMS 90-3 (sensitive); test: as above; assay type: cell-based; settings: Staphylococcus aureus, 18 h
Method: as §1, §2

[11] = system: S. aureus UBMS 88-4 (sensitive); test: as above; assay type: cell-based; settings: Staphylococcus aureus
Method: as §1, §2

[12] = system: S. aureus IVES 2943 (meth. resistant); test: as above; assay type: cell-based; settings: Staphylococcus aureus, 18 h
Method: as §1, §2

[13] = system: S. aureus ATCC 29213 (sensitive); test: as above; assay type: cell-based; settings: Staphylococcus aureus
Method: as §1, §2

[14] = system: Enteroc. spp. 12201; test: as above; assay type: cell-based; settings: 18 h
Method: as §1, §2

[15] = system: S. faecal. ATCC 29212; test: as above; assay type: cell-based
Method: as §1, §2

[16] = system: S. haemol. AVAH 88-3; test: as above; assay type: cell-based
Method: as §1, §2

[17] = system: E. coli ATCC 25922; test: as above; assay type: cell-based; settings: Escherichia coli
Method: as §1, §2

[18] = system: E. coli UBMS 88-2 (sensitive); test: as above; assay type: cell-based; settings: Escherichia coli
Method: as §1, §2

[19] = system: S30 extract from E. coli strain MRE 600 (tetracycline sensitive); test: E. coli in vitro cell free protein translation system, Wild Type S30; assay type: biochemical; settings: for % Inhibition Wild Type S30: 35S-methionine incorporation, 30 minutes at 37° C.
From the text: (§3) E. coli in Vitro protein Translation System (Table II)
(§4) An in vitro, cell free, protein translation system using extracts from E. coli strain MRE 600 (tetracycline sensitive) and a derivative of MRE 600 containing the tetM determinant has been developed based on literature methods J. M. Pratt, Coupled Transcription-translation in Prokaryotic Cell-free Systems, Transcription and Translation, a Practical Approach, (B. D. Hames and S. J. Higgins, eds) p. 179-209, IRL Press, Oxford-Washington, 1984!.
(§5) Using the system described above, the tetracycline compounds of the present invention are tested for their ability to inhibit protein synthesis in vitro. Briefly, each 10 μl reaction contains S30 extract (a whole extract) made from either tetracycline sensitive cells or an isogenic tetracycline resistant (tetM) strain, low molecular weight components necessary for transcription and translation (i.e., ATP and GTP), a mix of 19 amino acids (no methionine), ^35 S labeled methionine, DNA template (either pBR322 or pUC119), and either DMSO (control) or the novel tetracycline compound to be tested ("novel TC") dissolved in DMSO.
(§6) The reactions are incubated for 30 minutes at 37° C. Timing is initiated with the addition of the S30 extract, the last component to be added. After 30 minutes, 2.5 μl of the reaction is removed and mixed with 0.5 ml of 1N NaOH to destroy RNA and tRNA. Two to three ml of 25% trichloroacetic acid is added and the mixture incubated at room temperature for 15 minutes. The trichloroacetic acid precipitated material is collected on Whatman GF/C filters and washed with a solution of 10% trichloroacetic acid. The filters are dried and the retained radioactivity, representing incorporation of ^35 S-methionine into polypeptides, is counted using standard liquid scintillation methods.
(§7) The percent inhibition (P.I.) of protein synthesis is determined to be: [formula]

[20] = system: S30 extract from derivative of E. coli MRE 600 containing the tetM determinant; test: E. coli in vitro cell free protein translation system, TetM S30; assay type: biochemical; settings: for % Inhibition TetM S30: 35S-methionine incorporation, 30 minutes at 37° C.
From the text: as §3, §4, §5, §6, §7

[21] = system: Staphylococcus aureus strain Smith (tetracycline sensitive); test: In vivo antibacterial evaluation, acute lethal infection in mice; settings: 168 h, female mice CD-1, intraperitoneal challenge with S. aureus Smith, dosed subcutaneously or orally 30 minutes after infection, 7 day survival ratios
Method: In Vivo Antibacterial Evaluation (Table III)
The therapeutic effects of tetracyclines are determined against an acute lethal infection with Staphylococcus aureus strain Smith (tetracycline sensitive). Female, mice, strain CD-1 (Charles River Laboratories), 20±2 grams, are challenged by an intraperitoneal injection of sufficient bacteria (suspended in hog mucin) to kill non-treated controls within 24-48 hours. Antibacterial agents, contained in 0.5 ml of 0.2% aqueous agar, are administered subcutaneously or orally 30 minutes after infection. When an oral dosing schedule is used, animals are deprived of food for 5 hours before and 2 hours after infection. Five mice are treated at each dose level. The 7 day survival ratios from 3 separate tests are pooled for calculation of median effective dose (ED50).

[22] = ATCC29213, agar dilution, Muller-Hinton II agar, 18 hours at 35° C., S. aureus ATCC 29213 (sensitive), read-out: MIC
[23] = agar dilution, Muller-Hinton II agar, 18 hours at 35° C., E. coli UBMS 88-2 (sensitive), read-out: MIC

Row | SMILES | MIC [1] | MIC [2] | MIC [3] | MIC [4] | MIC [5] | MIC [6] | MIC [7] | MIC [9] | MIC [10] | MIC [12] | MIC [13, 22] | MIC [14] | MIC ([15]; 18 h) | MIC [18, 23] | MIC ([8]; 18 h) | MIC ([11]; 18 h) | MIC ([13]; ATCC29213, 18 h) | MIC ([16]; 18 h) | MIC ([17]; ATCC25922, 18 h) | ED50 [21] | other results
1 | CN(C)[C@@H]1C(O)=C(C(N)=O)C(=O)[C@@]2(O)C(O)=C3C(=O)c4c(O)cc(Cl)c(N)c4CC3CC12 (stereo partly shown) [Compound C, 7-Amino-8-chloro-4-(dimethylamino)-1,4-4a,5,5a,6,11,12a-octahydro-3,10,12,12a-tetrahydroxy-1,11-dioxo-2-naphthacenecarboxamide hydrochloride] | 32 µg/mL | > 32 µg/mL | > 32 µg/mL | 32 µg/mL | 8 µg/mL | 32 µg/mL | > 32 µg/mL | 4 µg/mL | 0.12 µg/mL | > 32 µg/mL | 0.12 µg/mL | 32 µg/mL | 8 µg/mL | 2 µg/mL | – | – | – | – | – | – | MIC ([8]; agar dilution, Muller-Hinton II agar, 18 hours at 35° C., S. aureus SMITH (MP) (sensitive), read-out: MIC): 0.25 µg/mL; MIC ([11]; agar dilution, Muller-Hinton II agar, 18 hours at 35° C., S. aureus UBMS 88-4 (sensitive), read-out: MIC): 0.5 µg/mL; MIC ([16]; agar dilution, Muller-Hinton II agar, 18 hours at 35° C., S. haemol. AVAH 88-3, read-out: MIC): 1 µg/mL; MIC ([17]; ATCC25922, agar dilution, Muller-Hinton II agar, 18 hours at 35° C., E. coli ATCC 25922, read-out: MIC): 2 µg/mL
2 | CN(C)c1c(Cl)c(NC=O)c(O)c2c1CC1CC3C(N(C)C)C(O)=C(C(N)=O)C(=O)C3(O)C(O)=C1C2=O.O=S(=O)(O)O (stereo not shown) [F, 8-Chloro-4,7-bis(dimethylamino)-9-(formylamino)-1,4,4a,5,5a,6,11,12a-octahydro-3,10,12,12a-tetrahydroxy-1,11-dioxo-2-naphthacenecarboxamide sulfate] | 0.5 µg/mL | 4 µg/mL | > 32 µg/mL | 0.5 µg/mL | 0.12 µg/mL | 0.25 µg/mL | 8 µg/mL | 1 µg/mL | 0.06 µg/mL | 8 µg/mL | – | 0.5 µg/mL | 0.06 µg/mL | – | 0.06 µg/mL | 0.12 µg/mL | 0.06 µg/mL | 0.12 µg/mL | 0.25 µg/mL | – | MIC ([18]; 18 h): 1 µg/mL
3 | CN(C)c1c(Cl)c(N)c(O)c2c1CC1CC3[C@H](N(C)C)C(O)=C(C(N)=O)C(=O)[C@@]3(O)C(O)=C1C2=O (stereo partly shown) [H, 9-Amino-8-chloro-4,7-(dimethylamino)-1,4-4a,5,5a,6,11,12a-octahydro-3,10,12,12a-tetrahydroxy-1,11-dioxo-2-naphthacenecarboxamide sulfate] | 2 µg/mL | 0.25 µg/mL | > 32 µg/mL | – | 0.5 µg/mL | 1 µg/mL | 4 µg/mL | 16 µg/mL | 0.12 µg/mL | 1 µg/mL | < 0.015 µg/mL | 4 µg/mL | – | 8 µg/mL | 0.06 µg/mL | 0.12 µg/mL | – | 0.12 µg/mL | 4 µg/mL | 4 to 8 mg/kg | % Inhibition Wild Type S30 ([19]; Conc. 0.1 mg/ml): 52%; % Inhibition Wild Type S30 ([19]; Conc. 0.3 mg/ml): 62%; % Inhibition Wild Type S30 ([19]; Conc. 1.0 mg/ml): 57%; MIC ([15]; agar dilution, Muller-Hinton II agar, 18 hours at 35° C., S. faecal. ATCC 29212, read-out: MIC): 0.5 µg/mL; % Inhibition TetM S30 ([20]; Conc. 0.1 mg/ml): 19%; % Inhibition TetM S30 ([20]; Conc. 0.3 mg/ml): 21%; % Inhibition TetM S30 ([20]; Conc. 1.0 mg/ml): 29%
4 | CN(C)[C@@H]1C(=O)C(C(N)=O)=C(O)[C@@]2(O)C(=O)C3=C(O)c4c(O)cccc4[C@@](C)(O)[C@H]3C[C@@H]12 [K, Tetracycline hydrochloride, reference compound] | > 32 µg/mL | > 32 µg/mL | > 32 µg/mL | 16 µg/mL | 32 µg/mL | > 32 µg/mL | > 32 µg/mL | 1 µg/mL | 0.06 µg/mL | > 32 µg/mL | – | 32 µg/mL | 16 µg/mL | – | 0.06 µg/mL | 0.12 µg/mL | ≤ 0.015 µg/mL | 1 µg/mL | 0.5 µg/mL | – | inhibition of protein synthesis, in words ([19]; cell-free extracts from tetracycline susceptible strain MRE600): inhibited; MIC ([18]; 18 h): 0.25 µg/mL; inhibition of protein synthesis, in words ([20]; cell-free extracts from strain MRE600 (tetM)): resistant
5 | CN(C)[C@@H]1C(O)=C(C(N)=O)C(=O)[C@@]2(O)C(O)=C3C(=O)c4c(cc(Cl)c(NC=O)c4O)CC3CC12 (stereo partly shown) [A HCL] | – | – | – | – | – | – | – | – | – | – | – | – | – | – | – | – | – | – | – | 4 to 8 mg/kg | –
6 | CCN(CC)c1c(Cl)c(N)c(O)c2c1CC1CC3[C@H](N(C)C)C(O)=C(C(N)=O)C(=O)[C@@]3(O)C(O)=C1C2=O (stereo partly shown) [M] | – | – | – | – | – | – | – | – | – | – | – | – | – | – | – | – | – | – | – | > 16 mg/kg | –
